The source of these data is US20140128352A1, “COMPOUNDS AND METHODS FOR MODULATING MITOCHONDRIAL METABOLISM AND REACTIVE OXYGEN SPECIES PRODUCTION” (Buck Institute for Research on Aging, priority 2012, published 2014).

The subject of assay [1] is complex I. As to the kind of experiment: Rate of NAD(P)H reduction via complex I versus observed ROS production. Type of assay: biochemical, rat. The note with it: 2.5 uM; succinate with low glutamate; FIG. 2B.
Method: To compare candidate IQ ROS inhibitors with mitochondrial inhibitors known to disrupt complex I activity (e.g. rotenone) or oxidize the electron transport chain (e.g. the uncoupler FCCP), the rate of NAD(P)H reduction via complex I was measured when isolated mitochondria were provided with saturating concentrations of the complex II substrate succinate (5 mM) and subsaturating levels of glutamate (1 mM) to facilitate full activation of complex II by oxaloacetate removal. […] These conditions allow electron and proton fluxes through complex Ito reverse and be directed predominantly toward the matrix. Addition of succinate causes a rapid increase in the reduction state of the matrix NAD(P)H pool that can be monitored as described above. The rate of NAD(P)H reduction is therefore a measure of electron flux through complex I for which direct comparisons can be made under identical conditions to effects on rates of ROS production.
Assay [2] has as its target T1, site IF (Rattus norvegicus, UniProt Q5XIH3).
T1 construct: freshly isolated muscle mitochondria were assayed; from tissue; host or cells: rat skeletal muscle mitochondria (Wistar, Harlan Laboratories)
As to the kind of experiment: Relationship of site IF ROS production to steady state matrix NAD(P)H reduction. The class given is biochemical. The settings on record: high NADH reduction (>90%). The method, then:
The rate of ROS production from site IF is linked to the reduction state of the NAD(P)H pool in the mitochondrial matrix (Treberg et al., 2011; Quinlan et al, submitted). Therefore, to evaluate the mechanism of action of putative IF ROS inhibitors, the effect of candidate compounds on the relationship between site IF ROS production and NAD(P)H reduction was tested.

For assay [3], the target named is T2, GPDH (Rattus norvegicus, UniProt P35571).
T2 construct: from tissue; host or cells: rat skeletal muscle mitochondria (Wistar, Harlan Laboratories)
T2 sequence (P35571 43-727): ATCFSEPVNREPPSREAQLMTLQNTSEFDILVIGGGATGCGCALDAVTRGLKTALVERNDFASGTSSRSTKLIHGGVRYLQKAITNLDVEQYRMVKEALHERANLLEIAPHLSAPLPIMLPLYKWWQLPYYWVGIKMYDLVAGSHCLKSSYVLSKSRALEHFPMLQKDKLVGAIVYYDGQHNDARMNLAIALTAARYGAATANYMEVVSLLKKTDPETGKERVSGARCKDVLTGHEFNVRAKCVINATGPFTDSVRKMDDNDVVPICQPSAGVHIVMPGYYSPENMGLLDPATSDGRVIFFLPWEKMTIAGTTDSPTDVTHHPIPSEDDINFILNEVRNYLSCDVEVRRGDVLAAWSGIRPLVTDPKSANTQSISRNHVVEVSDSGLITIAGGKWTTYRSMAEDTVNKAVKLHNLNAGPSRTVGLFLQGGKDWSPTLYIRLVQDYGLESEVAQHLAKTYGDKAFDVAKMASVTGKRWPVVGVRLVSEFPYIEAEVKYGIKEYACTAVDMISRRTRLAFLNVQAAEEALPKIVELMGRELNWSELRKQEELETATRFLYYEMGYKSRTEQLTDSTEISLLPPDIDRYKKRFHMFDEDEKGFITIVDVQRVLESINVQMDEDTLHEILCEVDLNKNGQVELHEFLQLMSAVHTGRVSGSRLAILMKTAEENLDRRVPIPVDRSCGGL
As to the kind of experiment: Retest of GPDH ROS production (expanded microplate panel / cuvette). The note with it: microplate or cuvette. Type of assay: biochemical. The method, then:
Compounds identified as site-selective hits as well as structural analogs were re-sourced from ChemBridge and dissolved in DMSO as 80 mM stocks. Master Titration Plates were prepared manually by serially diluting 80 mM compound stocks between 0.08 and 80 mM on 96-well microplates. Four compounds were titrated in duplicate on each plate. Additional DMSO controls were interspersed across these plates to serve as local normalization controls during analysis since two-way median polishing was not appropriate. Just prior to use, compounds were diluted 100-fold with standard buffer (10X). The same known inhibitor positive controls were included on each plate as during high-throughput screening.
The five core ROS assays and single ΔΨm assay were carried out as in the initial high-throughput screen. In addition, several assays were included to help validate the specificity of the compounds for a given site of production. All compounds were titrated against separate assays targeting IQ ROS and IIIQo ROS using subsaturating (0.5 mM final) succinate. […] Specifically, ΔΨm was monitored separately with 5 mM succinate (in the presence of 4 μM rotenone) in addition to glutamate and malate as before. The use of different substrates was designed to reveal compounds that disrupt mitochondrial function in a substrate specific manner.
Most frequently, these changes involved the use of different substrates to supply electrons from an alternative entry point in the chain. If a site of ROS production is being targeted selectively by a compound, then in many cases the supply of electrons should not influence the effectiveness of this compound at suppressing ROS production. […]
The fluorescence values in each well were scaled in relation to the intra-plate DMSO and known inhibitor controls as in the high-throughput screen except that median values for local interspersed DMSO wells (3-6 wells) were used rather than just the 8 DMSO wells in columns 1 and 12. […]

The target of assay [4] is T3, mitochondrial GPDH (Rattus norvegicus, UniProt P35571).
T3 construct: The activity of GPDH in intact mitochondria (0.3 mg/mL) was measured; from tissue; host or cells: rat skeletal muscle mitochondria (Wistar, Harlan Laboratories)
T3 sequence (P35571 43-727): T2 sequence (P35571 43-727)
As to the kind of experiment: Mitochondrial GPDH activity (DCPIP reduction). Type of assay: biochemical.

“Also recorded” adds a separate entry of the source.

T1 sequence (Q5XIH3 21-464 limits assumed): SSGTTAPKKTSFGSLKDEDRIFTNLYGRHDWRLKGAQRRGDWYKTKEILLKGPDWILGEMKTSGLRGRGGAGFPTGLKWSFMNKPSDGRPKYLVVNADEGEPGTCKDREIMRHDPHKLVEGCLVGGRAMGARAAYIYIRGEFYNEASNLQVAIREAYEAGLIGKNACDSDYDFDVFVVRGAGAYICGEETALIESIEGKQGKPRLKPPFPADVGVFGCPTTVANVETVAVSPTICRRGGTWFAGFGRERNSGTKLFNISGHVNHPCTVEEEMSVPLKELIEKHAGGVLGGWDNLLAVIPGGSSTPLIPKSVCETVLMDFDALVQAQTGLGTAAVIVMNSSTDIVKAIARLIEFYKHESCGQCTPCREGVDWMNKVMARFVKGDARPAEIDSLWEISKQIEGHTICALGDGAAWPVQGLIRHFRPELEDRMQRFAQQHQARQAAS

On to `O=[N+]([O-])c1ccc(Oc2ccc(S(=O)(=O)NC3CCCCC3)cc2)cc1` [Compound 4], for which the “suppression of observed ROS before any sign of altered flux through CI to NADH” value in assay [1] was “at least 45%”.

Turning to `Cc1ccc(C)c(CN(CCCN(C)C)CCCN(C)C)c1` [Compound 32], in assay [2], the “ROS production from site IF in relation to NADH reduction” value is listed as “lowers the amount of ROS production from site IF as the matrix NADH pool becomes strongly reduced; also recorded: the expected ROS production was suppressed”. On to `O=C(O)CSc1cccc(C(=O)Nc2ccc(Br)cc2)c1` [Compound 47], for which the “effect on GPDH ROS on retesting” value in assay [3] was “progressively inhibited GPDH ROS”. As for `O=C(O)CCC(=O)Nc1ccc(-c2nc3cc4ccccc4cc3[nH]2)cc1` [Compound 61], the “effect on GPDH ROS on retesting” value in assay [3] is “more potent inhibitor of GPDH-specific ROS, ΔΨm, and respiration”. For the same molecule, in assay [4], the “kinetics of inhibition of GPDH activity” value is recorded as “mixed inhibition kinetics” and the “potency at inhibiting GPDH activity relative to Compound No. 46” value is on record as “at least 6 times”.
